Experimental data taken from paper PMC10952572, “Improved PIEZO1 agonism through 4‐benzoic acid modification of Yoda1” (British Journal of Pharmacology, 2023).

Key:
hPIEZO1 = target: T1, hPIEZO1 (Homo sapiens, UniProt Q92508); test: Automated patch clamp (SyncroPatch 384) on hPIEZO1-TREx cells; type: cell-based; conditions: for Effect on M-Stim-evoked currents: hPIEZO1-TREx cells, −80 mV; for Cells responding to activation: hPIEZO1-TREx, 10 μM KC157, 10 μM Yoda1, 5 μM KC159
T1 construct: expressed in transfected cells
Experimental: For automated patch clamp, cells were cultured and harvested according to Nanion's standard cell culture protocol (Obergrussberger et al., [2014]). hPIEZO1‐TREx cells were induced to express PIEZO1 by incubation with 0.5 μg·ml^−1 tetracycline 24 h prior to experiments. Whole‐cell patch‐clamp recordings were conducted on HEK‐TREx, hPIEZO1‐TREx and mPIEZO1‐TREx cells according to Nanion's standard procedure for the SyncroPatch 384, using medium resistance (4–5 MΩ) chips (Obergrussberger et al., [2018]). Cells were held at −80 mV for the duration of the experiment. The channel was activated by mechanical forces in the absence and presence of the agonists. To stimulate PIEZO1 channels mechanically (mechanical stimulation [M‐Stim]), we dispensed 20 μl of solution (either reference or agonist) locally to the cell at a pipetting speed of 110 μl·s^−1 in synchrony with a triggered recording of the current response at the holding potential. The internal solution contained 110 mM KF, 10 mM KCl, 10 mM NaCl, 10 mM HEPES and 10 mM EGTA, pH adjusted to 7.2 with KOH, and the external solution contained 140 mM NaCl, 4 mM KCl, 2 mM CaCl2, 1 mM MgCl2, 5 mM glucose, 10 mM HEPES, pH adjusted to 7.4 with NaOH, and 0.1% DMSO to match the DMSO concentration of the compound solutions. For PIEZO1 stimulation, KC159, KC157 or Yoda1 was applied directly onto the cells via a pipette application. One chip of the SyncroPatch 384 is equipped with 384 wells served by 384 robotic pipettes and connected to 384 individual amplifiers, allowing us to test 384 distinct cells in one experiment. We tested the effect of each specified analogue on mPIEZO1‐, hPIEZO1‐ and untransfected HEK‐TREx cells in parallel and in comparison to mechanical and Yoda1 stimulation. To estimate the EC50 values, four concentrations of each agonist were tested per cell line in one chip, with each cell receiving single concentrations, and the concentration–response curve was calculated across the whole chip (384 cells). Only cells with seal resistance >0.3 GΩ, series resistance <20 MΩ and cell capacitance >5 and <40 pF were used for analysis.
DataControl 384 (Nanion Technologies GmbH), Prism 9 (GraphPad) and OriginPro 2020 (OriginLab) were used for all analysis of automated patch‐clamp data. For manual and automated patch‐clamp data, n represents the number of cells recorded from successfully in each experimental condition, sampled from two to six batches of cells or 384‐well chips in automated patch clamp. For manual patch‐clamp experiments, each cell/patch recording (n) is considered as an independent experiment because each was made independently at a separate time, using a separate coverslip of cells and using a separate patch pipette. In some instances, more than one such independent recording was made from the same batch of cultured or transfected cells. These n values are considered as independent. Each cell was studied alone and from a separate coverslip in the case for manual patch clamp. To estimate the EC50 values of the agonists in automated patch‐clamp studies, the peak current in the presence of the agonist was normalised to the peak current in the presence of the reference solution. Single‐point concentration–response curves were fitted with a standard Hill equation to estimate EC50 values. P < 0.05 was deemed significant. For automated patch‐clamp experiments, we included some data for n < 5 (Figure 7a,b). […] Such replicates are a feature of, and a rationale for, this automated technology, which is an innovation for the type of research shown here but already commonly used in the pharmaceutical industry for other ion channel studies to increase throughput and avoid waste from large volumes of independent cell cultures and minimise cost from expensive specially engineered plates. As a general strategy, our study used multiple independent technical approaches to address the same or similar questions. […]

[1] = Plasma protein binding by rapid equilibrium dialysis; type: in vitro ADME; conditions: RED
Experimental: Mouse plasma protein binding was measured by rapid equilibrium dialysis (RED) performed by Malvern Panalytical (UK). Briefly, mouse plasma was warmed to 37°C for 10 min, and test compound stock solution was added to achieve a 5 μM solution; 500 μl of dialysis buffer was added to one side of the chamber of the device insert (Piercenet, Dialysis membrane MWCO 8000) housed within a heated Teflon block, and the incubation was initiated by the addition of 300 μl of the test compound protein solution to the opposite chamber. Equilibrium was reached by shaking the device on an orbital mixer at 37°C for 4 h; 50 μl aliquots from the buffer and the plasma chambers were transferred into separate wells of a deep‐well plate; 50 μl of plasma was added to the buffer samples, and 50 μl of buffer was added to the plasma samples; 300 μl of ice‐cold acetonitrile containing internal standard was added to precipitate the protein. Samples were then centrifuged (2700 × g at 4°C for 20 min) to pellet the protein, and the supernatant was analysed by LC–MS/MS to quantify the % input compound unbound to plasma protein with reference to a standard curve.

T1 sequence (Q92508 whole entry): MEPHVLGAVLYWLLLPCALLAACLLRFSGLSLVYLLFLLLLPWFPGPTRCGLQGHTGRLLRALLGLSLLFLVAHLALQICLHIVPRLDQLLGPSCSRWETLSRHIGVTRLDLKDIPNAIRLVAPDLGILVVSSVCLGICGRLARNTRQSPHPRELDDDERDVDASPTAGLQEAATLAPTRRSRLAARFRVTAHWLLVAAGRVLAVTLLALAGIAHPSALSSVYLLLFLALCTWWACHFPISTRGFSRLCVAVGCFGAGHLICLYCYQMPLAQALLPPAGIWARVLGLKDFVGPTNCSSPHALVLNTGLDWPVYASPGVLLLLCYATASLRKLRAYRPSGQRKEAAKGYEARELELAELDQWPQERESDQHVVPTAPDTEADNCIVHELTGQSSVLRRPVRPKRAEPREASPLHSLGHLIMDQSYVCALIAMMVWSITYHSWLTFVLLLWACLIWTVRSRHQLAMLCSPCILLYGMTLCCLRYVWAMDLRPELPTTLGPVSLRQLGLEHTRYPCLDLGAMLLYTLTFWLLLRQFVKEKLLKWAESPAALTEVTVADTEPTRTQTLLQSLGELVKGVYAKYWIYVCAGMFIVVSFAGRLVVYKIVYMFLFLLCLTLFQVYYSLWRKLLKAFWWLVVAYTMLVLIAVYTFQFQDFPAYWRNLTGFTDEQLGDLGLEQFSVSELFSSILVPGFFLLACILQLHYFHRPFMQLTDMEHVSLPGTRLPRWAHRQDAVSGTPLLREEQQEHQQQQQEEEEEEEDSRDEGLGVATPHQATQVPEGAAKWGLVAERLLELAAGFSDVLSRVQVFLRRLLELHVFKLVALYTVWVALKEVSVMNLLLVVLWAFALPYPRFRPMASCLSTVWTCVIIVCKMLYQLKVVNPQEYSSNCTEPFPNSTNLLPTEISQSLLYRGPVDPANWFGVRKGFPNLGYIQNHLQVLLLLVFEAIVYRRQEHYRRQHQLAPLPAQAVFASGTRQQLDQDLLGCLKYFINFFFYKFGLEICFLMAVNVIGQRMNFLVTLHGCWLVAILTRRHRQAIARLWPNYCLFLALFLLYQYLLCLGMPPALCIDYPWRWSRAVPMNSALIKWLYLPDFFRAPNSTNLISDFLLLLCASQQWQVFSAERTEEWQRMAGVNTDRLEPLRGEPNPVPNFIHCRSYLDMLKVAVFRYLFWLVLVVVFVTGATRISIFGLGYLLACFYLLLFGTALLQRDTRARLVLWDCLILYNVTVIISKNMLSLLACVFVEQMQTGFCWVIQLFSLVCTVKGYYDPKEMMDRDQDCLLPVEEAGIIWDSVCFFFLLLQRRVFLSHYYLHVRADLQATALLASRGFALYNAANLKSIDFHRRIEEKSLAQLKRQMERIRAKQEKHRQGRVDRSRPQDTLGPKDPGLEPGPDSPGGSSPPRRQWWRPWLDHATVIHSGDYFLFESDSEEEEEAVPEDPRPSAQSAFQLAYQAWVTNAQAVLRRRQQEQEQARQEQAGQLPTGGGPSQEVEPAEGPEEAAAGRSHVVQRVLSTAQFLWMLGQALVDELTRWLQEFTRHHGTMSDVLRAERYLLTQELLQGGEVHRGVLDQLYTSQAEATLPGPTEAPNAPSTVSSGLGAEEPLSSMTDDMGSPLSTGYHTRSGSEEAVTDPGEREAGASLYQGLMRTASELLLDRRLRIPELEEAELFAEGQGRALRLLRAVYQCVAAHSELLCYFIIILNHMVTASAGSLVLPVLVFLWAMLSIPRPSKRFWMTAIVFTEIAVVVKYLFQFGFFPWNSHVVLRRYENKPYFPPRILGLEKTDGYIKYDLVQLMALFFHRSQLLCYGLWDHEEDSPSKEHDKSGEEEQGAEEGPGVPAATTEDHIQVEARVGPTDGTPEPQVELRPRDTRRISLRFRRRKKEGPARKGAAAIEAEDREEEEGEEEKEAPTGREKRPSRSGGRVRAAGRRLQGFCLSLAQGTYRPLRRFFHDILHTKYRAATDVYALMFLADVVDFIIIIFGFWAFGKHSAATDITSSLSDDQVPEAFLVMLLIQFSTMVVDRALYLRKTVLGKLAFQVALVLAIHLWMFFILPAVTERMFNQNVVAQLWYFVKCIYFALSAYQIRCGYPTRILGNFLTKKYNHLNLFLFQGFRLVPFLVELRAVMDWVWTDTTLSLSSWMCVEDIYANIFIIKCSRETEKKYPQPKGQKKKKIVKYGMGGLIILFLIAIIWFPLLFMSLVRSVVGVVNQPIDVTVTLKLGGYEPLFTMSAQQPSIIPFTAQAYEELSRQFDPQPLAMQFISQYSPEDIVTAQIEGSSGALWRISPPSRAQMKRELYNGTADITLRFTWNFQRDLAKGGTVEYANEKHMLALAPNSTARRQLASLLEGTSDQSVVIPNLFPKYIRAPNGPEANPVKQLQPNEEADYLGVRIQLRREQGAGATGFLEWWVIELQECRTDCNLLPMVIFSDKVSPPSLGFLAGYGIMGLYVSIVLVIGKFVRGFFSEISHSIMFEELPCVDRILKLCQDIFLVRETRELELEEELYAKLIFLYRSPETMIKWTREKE

Compound	Effect on M-Stim-evoked currents (hPIEZO1; 10 μM)	Cells responding to activation (hPIEZO1)	Sustained component of current as % of peak current (hPIEZO1; 10 μM, hPIEZO1 cells, mean ± SD)	EC50 (hPIEZO1; hPIEZO1, normalised peak current, maximum response not certain, read-out: EC50 (estimate))	fraction unbound at 4 h, 5 μM ([1]; mouse, plasma, read-out: Fraction bound to plasma proteins (converted))	Fraction bound to plasma proteins ([1]; mouse plasma, 5 μM)
O=C(O)c1ccccc1-c1nnc(SCc2c(Cl)cccc2Cl)s1 [KC157]	mostly fails to evoke responses	largely ineffective	–	–	–	–
O=C(O)c1ccc(-c2nnc(SCc3c(Cl)cccc3Cl)s2)cc1 [KC159]	greatly amplifies the currents	more cells to respond compared with Yoda1	−4 ± 2%	~1670 nM	0.006	–
O=C([O-])c1ccc(-c2nnc(SCc3c(Cl)cccc3Cl)s2)cc1.[K+] [KC289]	–	–	–	–	–	99.35%
